Key:
[1] = biological target: T1, dopamine D1 receptor (Rattus norvegicus, UniProt P18901); test: In-vitro binding, dopamine D1 receptor; settings: dihydrochloride salt; read-out: binding affinity for dopamine D1 receptor (K1)
T1 construct: from tissue; host or cells: brain

[2] = test system: apomorphine climbing; test: Standard apomorphine climbing mouse assay; format: in vivo; settings: mice, p.o.
Description: (§1) An assessment of dopamine antagonism was made in rodent models.

[3] = biological target: T2, dopamine D2 receptor (Rattus norvegicus, UniProt P61169); test: In-vitro binding, dopamine D2 receptor; settings: dihydrochloride salt; read-out: binding affinity for dopamine D2 receptor (K1)
T2 construct: relative to dopamine (D2) receptors in the brain; from tissue; host or cells: brain

[4] = biological target: brain serotonin 5-HT2 receptor (UniProt P14842); test: In-vitro binding, brain serotonin 5-HT2 receptor; settings: dihydrochloride salt; read-out: binding affinity for brain serotonin 5-HT2 receptor (K1)
[5] = biological target: T3, Adrenergic α1D (Homo sapiens, UniProt P25100); test: Radioligand binding 203400 Adrenergic α1D; settings: hum
T3 construct: host or cells: HEK-293
Description: (§2) Receptor binding methods, α-adrenergic subtype specific, are provided below.

[6] = biological target: Adrenergic α2A (Homo sapiens, UniProt P08913); test: Radioligand binding Adrenergic α2A; settings: hum
[7] = biological target: Adrenergic α2C (Homo sapiens, UniProt P18825); test: Radioligand binding Adrenergic α2C; settings: hum
[8] = Oral bioavailability in dogs; format: in vivo; settings: dog, plasma, Beagle dogs
[9] = test system: immobility; test: Tail suspension test; format: in vivo, mice; settings: for reduction of immobility relative to vehicle control group: p<0.01
Protocol: In a first experiment, mice (n−10/group) were treated with vehicle, 2.0, 5.0, or 10.0 mg/kg of 11-piperazin-1-yldibenzo[b,f][1,4]thiazepine s.c. 15 minutes prior to the test session. Mice were suspended from their tails for 7 minutes. During the last 5 minutes of the test, the duration of immobility was recorded. In a second experiment, mice (n=10/group) were treated with vehicle, 30 mg/kg 11-piperazin-1-yldibenzo[b,f][1,4]thiazepine, or 30 mg/kg fluoxetine p.o. 60 minutes prior to the test session. Mice were suspended from their tails for 7 minutes. During the last 5 minutes of the test, the duration of immobility was recorded.

[10] = Oral bioavailability in monkeys; format: in vivo; settings: cynomolgus monkey, plasma
[11] = biological target: T4, 5-HT2A receptors (Homo sapiens, UniProt P28223); test: PET scans of primate subjects, 5-HT2A; format: in vivo; settings: preliminary PET
T4 construct: from tissue; host or cells: brain of living primates (PET)
Description: (§3) The compound of Formula I is a dibenzothiazepine that has shown antidopaminergic activity.

[12] = biological target: Adrenergic α2B (Homo sapiens, UniProt P18089); test: Radioligand binding Adrenergic α2B; settings: hum
[13] = test system: immobility; test: Mouse forced swim test (FST); format: in vivo; settings: 15 minutes prior
Protocol: The mouse forced swim test (FST) has been used to assess antidepressant potential of novel compounds (Porsolt; Lucki). Methods: Mice were placed in cylinders of water (25.0° C.±1.5° C.) for 6 minutes. The amount of immobility was quantified during the last 4 min of each session. The experimental observer was blind to the treatment conditions. […] Imipramine 45.0 mg/kg and citalopram 15.0 mg/kg were measured as the salt and administered ip 60 minutes prior to the behavioral session.

[14] = biological target: Uptake, Norepinephrine (Homo sapiens, UniProt P23975); test: Functional assay measuring norepinephrine uptake; format: cell-based; settings: [3H]Norepinephrine uptake, MDCK cells; read-out: EC50/IC50
Protocol: The following examples set forth parameters for the functional assay measuring norepinephrine uptake that was carried out.

[15] = test system: Adrenergic α2* Non-Selective; test: Radioligand binding 203900 Adrenergic α2 Non-Selective; settings: rat
Description: (§4) Receptor binding methods, α-adrenergic nonselective, are provided below.

[16] = biological target: D2 receptors (Homo sapiens, UniProt P14416); test: PET scans of primate subjects, D2; format: in vivo; settings: preliminary PET
[17] = biological target: T5, Adrenergic α1B (Rattus norvegicus, UniProt P15823); test: Radioligand binding 203200 Adrenergic α1B
T5 construct: 203200
Description: as §2

[18] = biological target: T6, 5-HT1A receptors (Homo sapiens, UniProt P08908); test: PET scans of primate subjects, 5-HT1A; format: in vivo; settings: preliminary PET
T6 construct: from tissue; host or cells: brain of living primates (PET)
Description: as §3

[19] = test system: Adrenergic α1* Non-Selective; test: Radioligand binding 203500 Adrenergic α1 Non-Selective; settings: rat
Description: as §4

[20] = test system: D-amphetamine locomotor activity; test: D-amphetamine locomotor activity test; format: in vivo, rat; settings: rats, s.c., freebase
Description: as §1

[21] = biological target: T7, 5HT Transporter (Homo sapiens, UniProt P31645); test: PET scans of primate subjects, 5HT Transporter; format: in vivo; settings: preliminary PET
T7 construct: from tissue; host or cells: brain of living primates (PET)
Description: as §3

[22] = Brain exposure in rats; format: in vivo; settings: one hour after 30 μmol/kg po
Protocol: Brain exposure was measured in rats. For concentrations of 11-piperazin-1-yldibenzo[b,f][1,4]thiazepine in brain, rats were dosed either po or iv (n=3 per dose route). At one hour after compound administration, blood and brain samples were obtained and then processed for analysis using HPLC/MS to measure concentrations of 11-piperazin-1-yldibenzo[b,f][1,4]thiazepine.

[23] = biological target: Transporter, Norepinephrine (NET) (Homo sapiens, UniProt P23975); test: Radioligand binding assay, norepinephrine transporter
Protocol: The following examples set forth parameters for the radioligand binding assay that was carried out.

[24] = biological target: T8, D1 receptors (Homo sapiens, UniProt P21728); test: PET scans of primate subjects, D1; format: in vivo; settings: preliminary PET
T8 construct: from tissue; host or cells: brain of living primates (PET)
Description: as §3

[25] = biological target: T9, Adrenergic α1A (Rattus norvegicus, UniProt P43140); test: Radioligand binding 203100 Adrenergic α1A
T9 construct: 203100
Description: as §2

[26] = 30 mg/kg p.o., 60 minutes prior

Adrenergic α2B, sequence (P18089 whole entry): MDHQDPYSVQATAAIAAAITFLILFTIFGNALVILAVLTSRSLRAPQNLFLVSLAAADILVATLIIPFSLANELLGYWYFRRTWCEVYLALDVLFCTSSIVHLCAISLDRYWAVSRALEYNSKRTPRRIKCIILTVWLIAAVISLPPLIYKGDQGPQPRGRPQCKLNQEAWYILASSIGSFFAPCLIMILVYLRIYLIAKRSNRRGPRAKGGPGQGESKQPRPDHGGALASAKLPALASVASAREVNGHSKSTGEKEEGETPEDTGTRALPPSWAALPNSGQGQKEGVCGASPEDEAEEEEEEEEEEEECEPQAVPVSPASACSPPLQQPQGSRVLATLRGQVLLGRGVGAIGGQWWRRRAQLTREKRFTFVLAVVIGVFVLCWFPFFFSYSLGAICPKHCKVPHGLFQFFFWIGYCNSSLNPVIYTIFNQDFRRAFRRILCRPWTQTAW
Adrenergic α2C, sequence (P18825 whole entry): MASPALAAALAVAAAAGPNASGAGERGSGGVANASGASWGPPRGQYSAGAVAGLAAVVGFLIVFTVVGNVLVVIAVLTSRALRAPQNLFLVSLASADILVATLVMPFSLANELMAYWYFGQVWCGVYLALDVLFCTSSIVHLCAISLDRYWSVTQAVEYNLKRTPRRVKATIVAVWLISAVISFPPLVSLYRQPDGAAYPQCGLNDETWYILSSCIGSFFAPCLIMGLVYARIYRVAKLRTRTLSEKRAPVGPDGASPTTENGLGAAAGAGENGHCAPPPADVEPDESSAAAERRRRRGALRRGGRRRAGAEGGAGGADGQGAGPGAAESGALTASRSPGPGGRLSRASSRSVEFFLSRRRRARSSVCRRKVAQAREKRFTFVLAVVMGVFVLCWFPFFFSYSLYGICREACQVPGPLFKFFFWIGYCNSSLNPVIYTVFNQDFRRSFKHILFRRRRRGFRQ
T4 sequence (P28223 whole entry): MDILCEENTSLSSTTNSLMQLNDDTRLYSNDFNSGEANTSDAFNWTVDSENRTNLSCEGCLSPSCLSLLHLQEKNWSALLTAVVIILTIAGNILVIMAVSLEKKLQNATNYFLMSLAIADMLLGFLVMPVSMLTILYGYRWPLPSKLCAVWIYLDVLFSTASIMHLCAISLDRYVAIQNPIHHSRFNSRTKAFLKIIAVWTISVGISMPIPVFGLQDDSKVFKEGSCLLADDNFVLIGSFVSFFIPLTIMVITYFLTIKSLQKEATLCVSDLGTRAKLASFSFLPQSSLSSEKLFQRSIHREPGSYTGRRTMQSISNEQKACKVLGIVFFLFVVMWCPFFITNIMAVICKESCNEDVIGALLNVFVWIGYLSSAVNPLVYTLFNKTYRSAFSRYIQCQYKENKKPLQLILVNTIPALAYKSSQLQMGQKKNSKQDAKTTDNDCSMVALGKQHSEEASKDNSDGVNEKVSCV
T9 sequence (P43140 whole entry): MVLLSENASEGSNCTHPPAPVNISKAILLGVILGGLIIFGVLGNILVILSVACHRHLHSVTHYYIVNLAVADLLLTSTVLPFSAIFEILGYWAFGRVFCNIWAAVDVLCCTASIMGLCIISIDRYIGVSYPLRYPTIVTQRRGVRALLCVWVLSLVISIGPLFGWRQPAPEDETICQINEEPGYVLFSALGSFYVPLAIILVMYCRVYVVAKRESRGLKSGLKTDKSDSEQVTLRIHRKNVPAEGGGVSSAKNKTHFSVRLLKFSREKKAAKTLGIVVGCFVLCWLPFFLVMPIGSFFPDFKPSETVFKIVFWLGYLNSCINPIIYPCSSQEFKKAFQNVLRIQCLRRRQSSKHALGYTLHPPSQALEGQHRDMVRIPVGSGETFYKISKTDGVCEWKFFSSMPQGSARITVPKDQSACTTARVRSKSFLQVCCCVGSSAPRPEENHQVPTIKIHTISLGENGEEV
D2 receptors, sequence (P14416 whole entry): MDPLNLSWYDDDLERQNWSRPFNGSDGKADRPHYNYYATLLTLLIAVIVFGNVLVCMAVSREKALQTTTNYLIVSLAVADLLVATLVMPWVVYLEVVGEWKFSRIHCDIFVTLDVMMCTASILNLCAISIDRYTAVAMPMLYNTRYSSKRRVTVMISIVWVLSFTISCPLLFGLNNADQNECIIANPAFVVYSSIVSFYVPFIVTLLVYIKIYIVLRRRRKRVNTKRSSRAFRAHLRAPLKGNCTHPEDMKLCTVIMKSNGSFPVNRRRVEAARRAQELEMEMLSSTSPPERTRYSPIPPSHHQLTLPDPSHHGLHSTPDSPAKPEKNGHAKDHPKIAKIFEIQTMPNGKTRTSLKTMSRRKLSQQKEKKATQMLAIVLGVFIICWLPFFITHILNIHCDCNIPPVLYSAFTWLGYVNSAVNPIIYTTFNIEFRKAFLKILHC
Adrenergic α2A, sequence (P08913 whole entry): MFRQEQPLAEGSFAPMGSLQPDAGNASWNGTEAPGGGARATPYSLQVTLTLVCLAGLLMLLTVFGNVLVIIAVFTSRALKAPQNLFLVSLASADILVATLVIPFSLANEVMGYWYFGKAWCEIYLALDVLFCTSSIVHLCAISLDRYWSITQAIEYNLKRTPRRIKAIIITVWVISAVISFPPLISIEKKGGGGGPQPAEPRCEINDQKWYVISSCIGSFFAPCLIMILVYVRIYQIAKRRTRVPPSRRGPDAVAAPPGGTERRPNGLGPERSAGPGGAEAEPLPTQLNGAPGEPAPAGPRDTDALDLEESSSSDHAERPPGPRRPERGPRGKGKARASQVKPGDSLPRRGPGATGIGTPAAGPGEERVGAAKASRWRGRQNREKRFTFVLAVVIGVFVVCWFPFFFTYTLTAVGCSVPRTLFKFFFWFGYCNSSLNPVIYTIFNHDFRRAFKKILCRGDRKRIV
T2 sequence (P61169 whole entry): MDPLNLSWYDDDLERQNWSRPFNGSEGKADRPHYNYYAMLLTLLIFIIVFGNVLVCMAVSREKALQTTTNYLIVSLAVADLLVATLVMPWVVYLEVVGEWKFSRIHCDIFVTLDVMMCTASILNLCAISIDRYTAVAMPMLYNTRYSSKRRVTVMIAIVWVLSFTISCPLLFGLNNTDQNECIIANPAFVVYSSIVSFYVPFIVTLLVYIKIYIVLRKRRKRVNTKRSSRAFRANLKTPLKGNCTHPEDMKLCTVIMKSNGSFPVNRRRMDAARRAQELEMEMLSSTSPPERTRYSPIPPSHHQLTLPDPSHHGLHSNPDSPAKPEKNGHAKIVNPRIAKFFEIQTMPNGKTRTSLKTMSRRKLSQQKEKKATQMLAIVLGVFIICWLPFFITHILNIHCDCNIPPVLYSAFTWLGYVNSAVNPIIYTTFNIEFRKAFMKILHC
T1 sequence (P18901 whole entry): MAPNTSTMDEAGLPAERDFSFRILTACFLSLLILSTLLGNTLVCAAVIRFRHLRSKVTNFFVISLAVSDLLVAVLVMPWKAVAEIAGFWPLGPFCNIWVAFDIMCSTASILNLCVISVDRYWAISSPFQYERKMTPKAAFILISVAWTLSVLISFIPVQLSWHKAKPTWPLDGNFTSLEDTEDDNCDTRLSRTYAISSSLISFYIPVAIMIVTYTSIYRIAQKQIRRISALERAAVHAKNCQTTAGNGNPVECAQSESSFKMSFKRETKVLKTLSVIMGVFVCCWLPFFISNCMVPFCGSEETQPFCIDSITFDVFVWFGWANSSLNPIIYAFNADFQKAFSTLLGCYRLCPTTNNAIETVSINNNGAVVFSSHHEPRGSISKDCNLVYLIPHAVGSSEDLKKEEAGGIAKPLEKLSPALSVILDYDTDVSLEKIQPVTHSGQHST
T6 sequence (P08908 whole entry): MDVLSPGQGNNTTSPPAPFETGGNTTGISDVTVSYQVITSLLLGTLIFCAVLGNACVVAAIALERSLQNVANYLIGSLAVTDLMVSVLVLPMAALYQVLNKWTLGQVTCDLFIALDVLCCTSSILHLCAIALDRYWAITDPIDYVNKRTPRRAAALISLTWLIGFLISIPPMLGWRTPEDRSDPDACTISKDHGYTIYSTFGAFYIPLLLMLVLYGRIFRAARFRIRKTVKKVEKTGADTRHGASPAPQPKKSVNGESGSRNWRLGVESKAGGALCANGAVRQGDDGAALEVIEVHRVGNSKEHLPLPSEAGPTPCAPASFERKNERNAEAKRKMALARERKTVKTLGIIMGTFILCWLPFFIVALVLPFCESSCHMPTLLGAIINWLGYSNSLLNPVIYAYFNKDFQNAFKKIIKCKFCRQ
T7 sequence (P31645 whole entry, species assumed): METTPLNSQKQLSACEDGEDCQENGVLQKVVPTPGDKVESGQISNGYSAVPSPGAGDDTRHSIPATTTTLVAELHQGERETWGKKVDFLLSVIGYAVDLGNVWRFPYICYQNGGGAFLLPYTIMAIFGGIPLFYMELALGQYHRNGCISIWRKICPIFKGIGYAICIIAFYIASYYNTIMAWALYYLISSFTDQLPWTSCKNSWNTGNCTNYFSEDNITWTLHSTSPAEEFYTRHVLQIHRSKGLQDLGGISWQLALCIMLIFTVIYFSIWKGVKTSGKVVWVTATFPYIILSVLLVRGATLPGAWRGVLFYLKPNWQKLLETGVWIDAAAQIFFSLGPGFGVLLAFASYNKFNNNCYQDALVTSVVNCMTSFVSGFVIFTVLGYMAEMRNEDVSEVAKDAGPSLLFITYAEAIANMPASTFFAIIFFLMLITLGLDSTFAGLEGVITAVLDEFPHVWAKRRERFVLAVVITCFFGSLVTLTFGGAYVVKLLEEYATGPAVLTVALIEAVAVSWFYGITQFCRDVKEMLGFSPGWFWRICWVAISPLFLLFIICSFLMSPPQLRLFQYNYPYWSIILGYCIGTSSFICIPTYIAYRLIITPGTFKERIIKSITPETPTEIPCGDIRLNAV

Cl.Cl.c1ccc2c(c1)N=C(N1CCNCC1)c1ccccc1S2 [11-piperazin-1-yldibenzo[b,f][1,4]thiazepine, dihydrochloride salt]
Ki [1]: 1490 nM
in vivo antipsychotic activity, apomorphine mouse assay [2]: not found to be efficacious
Ki [3]: 234 nM
Ki [4]: 27 nM

c1ccc2c(c1)N=C(N1CCNCC1)c1ccccc1S2 [11-piperazin-1-yldibenzo[b,f][1,4]thiazepine]
n (Hill coefficient) [5]: 0.984 ± 0.111
n (Hill coefficient) [6]: 0.969 ± 0.012
n (Hill coefficient) [7]: 1.1 ± 0.079
bioavailability [8]: 42%
reduction of immobility relative to vehicle control group ([9]; 10.0 mg/kg s.c.): more than ½
reduction of immobility relative to vehicle control group [9, 26]: more than ½
effect on duration of immobility ([9]; 2.0, 5.0 or 10.0 mg/kg s.c., 15 minutes prior): reduced immobility at all doses tested
in vivo antipsychotic activity, apomorphine mouse assay [2]: not shown to be efficacious
bioavailability [10]: 37%
receptor occupancy (PET), 5-HT2A [11]: occupies
n (Hill coefficient) [12]: 0.902 ± 0.055
effect on immobility in FST ([13]; 10.0 mg/kg sc): antidepressant effects in this assay comparable to imipramine
IC50 [14]: 13.4 nM
% INH. ([15]; 10 μM): 73%
IC50 [15]: 1410 nM
Ki [15]: 1290 nM
receptor occupancy (PET), D2 [16]: occupies
n (Hill coefficient) [17]: 1.1 ± 0.024
receptor occupancy (PET), 5-HT1A [18]: occupies
% INH. ([19]; 0.1 μM): 61%
IC50 [19]: 69.3 nM
Ki [19]: 37.2 nM
in vivo antipsychotic activity, D-amphetamine locomotor activity test [20]: not found to be efficacious
in vivo antipsychotic activity, D-amphetamine locomotor activity test ([20]; listed as Formula I): not shown to be efficacious
occupancy (PET), 5HT Transporter [21]: occupies
average concentration in brain tissue [22]: 2240 nmol/g
inhibition at 10 µM [23]: 97%
receptor occupancy (PET), D1 [24]: occupies
n (Hill coefficient) [25]: 1.03 ± 0.089

OCCOCCN1CCN(C2=Nc3ccccc3Sc3ccccc32)CC1 [Quetiapine, quetiapine, reference compound]
effect on immobility in FST ([13]; 5.0, 10.0 and 20.0 mg/kg sc): no effect

CNCCC(Oc1ccc(C(F)(F)F)cc1)c1ccccc1 (centres unmarked) [fluoxetine, reference compound]
reduction of immobility relative to vehicle control group [9, 26]: more than ½

Source: patent US20100093700A1, “Methods of Treating Mood Disorders” (priority 2007, published 2010)
